Measured values taken from US20240034731A1, “AZA-QUINAZOLINE COMPOUNDS AND METHODS OF USE” (Iambic Therapeutics, Inc., priority 2022, published 2024).

Columns and labels:
OVCAR-3 cells = experiment: Cell Growth Inhibition, OVCAR-3 (CellTiterGlo, 6 days); format: cell-based; conditions: Homo sapiens, 144 h, OVCAR-3, 6-day treatment
From the text: (§1) MCF-7 and OVCAR-3 cells were used to evaluate the anti-proliferation activity of the CDK inhibitors. MCF-7 (ATCC, HTB-22) cells are epithelial cells from a patient with ER+ metastatic adenocarcinoma. OVCAR-3 (ATCC, HTB-161) cells were derived from malignant ascites of a patient with ovarian cancer and are known to have CCNE1 amplification. Both cell lines were maintained in RPMI media supplemented with 10% fetal bovine serum. For cell growth inhibition assay, CDK inhibitors in DMSO solution were dispensed with either Echo 655 (Beckman Coulter) or Tecan D300e (HP) into 384-well plates (Corning #3765) and the 384-well plates were UV-sterilized prior to the assay. The inhibitors were typically tested in the 10-10,000 nM concentration range with half-log serial dilutions. MCF-7 or OVCAR-3 (500 cells/30 μL/well) were added to each well using Multidrop Combi (ThermoFisher) using standard cassettes. The assay plates with cells were cultured at 37° C., 5% CO2 for 6 days. At the end of the 6-day treatment, 30 μL of CellTiterGlo 2.0 (Promega) was added to each well and the luminescent signal was read using CLARIOstar plus (BMG). The percentage of cell growth inhibition (% CGI) was calculated using the following formula 00 CGI=100-100×luminescencesampie/luminescencecontroi. The half maximal inhibitory concentration (IC50) was determined by nonlinear curve fitting (four parameters, variable slope).

CDK2/Cyclin E1 = CDK2/Cyclin E1 (Homo sapiens (Human), UniProt P24941); experiment: CDK2/Cyclin E1 Full length ADP-Glo Kinase Assay; format: biochemical; conditions: 20 uM ATP, read-out: CDK2/ CyclinE1 IC50
Experimental: CDK2/Cyclin E1 Full length ADP-Glo Kinase Assay
(§2) The purpose of CDK2/Cyclin E1 assay is to evaluate the inhibition (% inhibition and IC50 values) of small molecule inhibitors by using a Luminescent based ADP-Glo assay. CDK2/Cyclin E1 full length catalyzes the production of ADP from ATP. ADP-Glo assay monitors ADP producing biochemical reactions. ADP-Glo is performed in 2 steps upon completion of kinase reaction: a combined termination of kinase reaction and depletion of remaining ATP in the first step, and conversion of generated ADP to ATP and the newly produced ATP to light output using luciferase/luciferin reaction in the second step. The luminescent signal generated is proportional to the ADP concentration produced and is correlated with the kinase activity. CDK2/Cyclin E1 was purchased from Eurofins (Cat 14-475M). […] The assay was initiated with the addition of ATP-containing substrate solution, following a 30-minute pre-incubation of enzyme and inhibitor at room temperature in the reaction mixture. The reaction was stopped after 90 minutes at room temperature by the addition of 10 uL of ADP-GLO Reagent. After a 90 minute incubation, 20 uL of Kinase Detection Reagent was added. Samples were incubated for 40 minutes, after which plate well luminescence was measured on a Envision microplate reader. The IC50 determinations were made from a plot of the fractional velocity as a function of inhibitor concentration fit to the 4 parameters IC50 equation.

CDK1/Cyclin B1 = CDK1/Cyclin B1 (Homo sapiens (Human), UniProt P06493); experiment: CDK1/Cyclin B1 ADP-Glo Kinase Assay; format: biochemical; conditions: ADP-Glo, 80 uM ATP; read-out: CDK1 Cyclin B1 IC50
Experimental: CDK1/Cyclin B1 ADP-Glo Kinase Assay
as §2, with “CDK1/Cyclin B1” for “CDK2/Cyclin E1”, “CDK1/Cyclin B1” for “CDK2/Cyclin E1 full length”, “Carna” for “Eurofins”, “04-102).” for “14-475M).”

CDK6/Cyclin D3 = CDK6/Cyclin D3 (Homo sapiens (Human), UniProt Q00534); experiment: CDK6/Cyclin D3 ADP-Glo Kinase Assay; format: biochemical; conditions: 100 uM ATP, read-out: CDK6/ CyclinD3 IC50
Experimental: CDK6/Cyclin D3 ADP-Glo Kinase Assay
The purpose of the CDK6/Cyclin D3 assay is to evaluate the inhibition (% inhibition and IC50 values) in the presence of small molecule inhibitors by using a Luminescent based ADP-Glo assay. CDK6/Cyclin D3 catalyzes the production of ADP from ATP. ADP-Glo assay monitors ADP producing biochemical reactions. ADP-Glo is performed in 2 steps upon completion of kinase reaction: a combined termination of kinase reaction and depletion of remaining ATP in the first step, and conversion of generated ADP to […] and the newly produced ATP to light output using luciferase/luciferin reaction in the second step. The luminescent signal generated is proportional to the ADP concentration produced and is correlated with the kinase activity CDK6/Cyclin D3 was purchased from Carna. […] The assay was initiated with the addition of ATP-containing substrate solution, following a 30-minute pre-incubation of enzyme and inhibitor at room temperature in the reaction mixture. The reaction was stopped after 90 minutes at room temperature by the addition of 10 uL of ADP-GLO Reagent. After a 90-minute incubation, 20 uL of Kinase Detection Reagent was added. Samples were incubated for 40 minutes, after which plate well luminescence was measured on a Envision microplate reader. The IC50 determinations were made from a plot of the fractional velocity as a function of inhibitor concentration fit to the 4 parameters IC50 equation.

CDK4/Cyclin D1 = CDK4/Cyclin D1 (Homo sapiens (Human), UniProt P11802); experiment: CDK4/Cyclin D1 CHEF Assay (AQT0258 peptide); format: biochemical; conditions: 200 uM ATP, read-out: CDK4/ CyclinD1 AQT IC50
From the text: CDK4/Cyclin D1 CHEF Assay
The purpose of CDK4/Cyclin D1 assay is to evaluate the inhibition (% inhibition and IC50 values) of small molecule inhibitors by using a Chelation-Enhance Fluorescence (CHEF) assay. In a CHEF assay, phosphorylation of a peptide substrate results in proportional increase in fluorescence. CHEF kinase assay use peptide substrates containing a synthetic alpha-amino acid with a side chain bearing an 8-hydroxyquinoline derivative (sulfonamido-oxide, Sox). Upon phosphorylation of a nearby serine, threonine or tyrosine and in the presence of Mg(II), the spectral properties of the Sox residue are altered, emitting 485 nm wavelength light when excited with a 360 nm wavelength light source. CDK4/Cyclin D1 catalyzes the phosphoryl transfer to the SOX-labeled substrate peptide AQT0258 from Assayquant Technologies. […] The reaction was initiated with the addition of substrate solution, following a 30-minute pre-incubation of enzyme and inhibitor at 22° C. in the reaction mix. Reactions were allowed to proceed for 3 hrs at 22° C., followed by fluorescence read of the reaction. The IC50 determinations were made from a plot of the fractional velocity as a function of inhibitor concentration fit to the 4 parameters IC50 equation.

MCF-7 cells = experiment: Cell Growth Inhibition, MCF-7 (CellTiterGlo, 6 days); format: cell-based; conditions: Homo sapiens, MCF7, 144 h, MCF-7, 6-day treatment
From the text: as §1

Chain of CDK6/Cyclin D3 (Q00534 whole entry): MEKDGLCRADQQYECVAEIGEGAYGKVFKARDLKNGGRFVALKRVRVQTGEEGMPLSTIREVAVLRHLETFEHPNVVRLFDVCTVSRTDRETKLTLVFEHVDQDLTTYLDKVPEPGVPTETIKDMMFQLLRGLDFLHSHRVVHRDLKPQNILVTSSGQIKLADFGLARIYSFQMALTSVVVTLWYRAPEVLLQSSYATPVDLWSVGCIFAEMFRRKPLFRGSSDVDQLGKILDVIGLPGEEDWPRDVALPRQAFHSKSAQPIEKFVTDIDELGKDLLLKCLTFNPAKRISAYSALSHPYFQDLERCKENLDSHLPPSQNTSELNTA
Chain of CDK6/Cyclin D3 (P30281 whole entry partner): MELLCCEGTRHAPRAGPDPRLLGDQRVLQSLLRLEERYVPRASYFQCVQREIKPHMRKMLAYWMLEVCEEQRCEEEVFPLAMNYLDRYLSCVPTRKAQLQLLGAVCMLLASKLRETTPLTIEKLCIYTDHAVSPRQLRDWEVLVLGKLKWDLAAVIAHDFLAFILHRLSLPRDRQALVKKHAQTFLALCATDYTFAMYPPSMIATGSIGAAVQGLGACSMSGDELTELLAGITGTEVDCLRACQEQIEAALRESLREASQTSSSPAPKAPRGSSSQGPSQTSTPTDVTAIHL
Chain of CDK1/Cyclin B1 (P06493 whole entry): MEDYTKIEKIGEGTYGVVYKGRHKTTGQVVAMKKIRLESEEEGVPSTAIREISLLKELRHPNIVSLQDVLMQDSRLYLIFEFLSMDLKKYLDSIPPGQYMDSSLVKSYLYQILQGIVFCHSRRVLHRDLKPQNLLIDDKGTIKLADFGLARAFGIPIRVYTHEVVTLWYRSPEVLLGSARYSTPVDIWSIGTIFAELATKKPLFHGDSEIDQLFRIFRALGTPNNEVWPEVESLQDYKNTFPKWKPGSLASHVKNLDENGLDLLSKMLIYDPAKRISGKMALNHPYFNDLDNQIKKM
Chain of CDK1/Cyclin B1 (P14635 whole entry partner): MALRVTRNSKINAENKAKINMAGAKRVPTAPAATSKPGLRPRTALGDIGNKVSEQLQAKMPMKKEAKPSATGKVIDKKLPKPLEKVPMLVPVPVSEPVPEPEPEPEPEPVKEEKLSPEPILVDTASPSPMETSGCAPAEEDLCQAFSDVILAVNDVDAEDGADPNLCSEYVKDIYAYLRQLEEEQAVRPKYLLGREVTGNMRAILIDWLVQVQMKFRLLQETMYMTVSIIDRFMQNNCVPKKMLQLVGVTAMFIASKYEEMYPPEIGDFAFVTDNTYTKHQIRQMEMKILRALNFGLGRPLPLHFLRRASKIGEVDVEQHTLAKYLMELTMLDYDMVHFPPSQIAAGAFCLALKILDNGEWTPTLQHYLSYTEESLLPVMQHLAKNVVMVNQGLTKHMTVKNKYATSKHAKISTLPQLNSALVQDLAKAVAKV
Chain of CDK4/Cyclin D1 (P11802 whole entry): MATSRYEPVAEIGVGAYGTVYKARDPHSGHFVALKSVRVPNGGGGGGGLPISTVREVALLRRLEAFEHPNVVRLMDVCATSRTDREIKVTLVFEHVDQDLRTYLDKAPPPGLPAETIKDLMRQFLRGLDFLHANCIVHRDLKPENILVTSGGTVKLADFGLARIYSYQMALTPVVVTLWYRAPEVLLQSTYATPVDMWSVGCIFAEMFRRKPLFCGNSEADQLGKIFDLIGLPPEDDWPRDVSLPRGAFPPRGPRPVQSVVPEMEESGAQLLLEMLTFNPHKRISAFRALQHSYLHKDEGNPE
Chain of CDK4/Cyclin D1 (P24385 whole entry partner): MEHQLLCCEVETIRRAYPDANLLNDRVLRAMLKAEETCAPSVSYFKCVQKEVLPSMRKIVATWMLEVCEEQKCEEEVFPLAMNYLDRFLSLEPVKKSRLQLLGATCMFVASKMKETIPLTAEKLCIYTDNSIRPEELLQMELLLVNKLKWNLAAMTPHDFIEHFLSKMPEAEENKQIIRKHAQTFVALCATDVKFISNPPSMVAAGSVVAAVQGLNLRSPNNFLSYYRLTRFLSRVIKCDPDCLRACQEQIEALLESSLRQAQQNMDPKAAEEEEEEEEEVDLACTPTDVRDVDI

Row | Compound | IC50 (OVCAR-3 cells) [nM] | IC50 (CDK2/Cyclin E1) [nM] | IC50 (CDK1/Cyclin B1) [nM] | IC50 (CDK6/Cyclin D3) [nM] | IC50 (CDK4/Cyclin D1) [nM] | IC50 (MCF-7 cells) [nM]
1 | Cc1cc2cnc(Nc3ccc(N4CC5(CN(C)C5)C4)cc3)nc2c(N2CC3(C2)CS(=O)(=O)C3)n1 [Compound 30, 6-(6-methyl-2-((4-(6-methyl-2,6-diazaspiro[3.3]heptan-2-yl)phenyl)amino)pyrido[3,4-d]pyrimidin-8-yl)-2-thia-6-azaspiro[3.3]heptane 2,2-dioxide] | > 2000 | 200 to 500 | > 2000 | 200 to 500 | 200 to 500 | > 2000
2 | FC(F)c1cc2cnc(Nc3ccc4c(c3)CN(C3CC3)C4)nc2c(N2CC3(CCNC3)C2)n1 [Compound 50, N-(2-cyclopropylisoindolin-5-yl)-6-(difluoromethyl)-8-(2,6-diazaspiro[3.4]octan-2-yl)pyrido[3,4-d]pyrimidin-2-amine] | 500 to 2000 | < 200 | 500 to 2000 | < 200 | < 200 | 500 to 2000
3 | Cc1cc2cnc(Nc3cnn(C4CN(CC#N)C4)c3)nc2c(N2CC3(CN(C)C3)C2)n1 [Compound 31, 2-(3-(4-((6-methyl-8-(6-methyl-2,6-diazaspiro[3.3]heptan-2-yl)pyrido[3,4-d]pyrimidin-2-yl)amino)-1H-pyrazol-1-yl)azetidin-1-yl)acetonitrile] | > 2000 | < 200 | > 2000 | > 2000 | > 2000 | > 2000
4 | Cc1cc2cnc(NC3CCN(S(C)(=O)=O)CC3)nc2c(N2CC3(CC(O)C3)C2)n1 [Compound 73, 2-(6-methyl-2-((1-(methylsulfonyl)piperidin-4-yl)amino)pyrido[3,4-d]pyrimidin-8-yl)-2-azaspiro[3.3]heptan-6-ol] | > 2000 | < 200 | 500 to 2000 | 200 to 500 | < 200 | > 2000
5 | Cc1cc2cnc(NC3CCN(S(C)(=O)=O)CC3)nc2c(N2CC(F)(F)C3(CN(C)C3)C2)n1 [Compound 96, 8-(8,8-difluoro-2-methyl-2,6-diazaspiro[3.4]octan-6-yl)-6-methyl-N-(1-(methylsulfonyl)piperidin-4-yl)pyrido[3,4-d]pyrimidin-2-amine] | 500 to 2000 | < 200 | < 200 | < 200 | < 200 | 200 to 500
6 | COC1CC2(C1)CN(c1nc(C)cc3cnc(NC4CCN(S(C)(=O)=O)CC4)nc13)C2 [Compound 76, 8-(6-methoxy-2-azaspiro[3.3]heptan-2-yl)-6-methyl-N-(1-(methylsulfonyl)piperidin-4-yl)pyrido[3,4-d]pyrimidin-2-amine] | > 2000 | < 200 | 200 to 500 | < 200 | < 200 | 500 to 2000
7 | O=S(=O)(C1CC1)N1CCC(Nc2ncc3cc(C(F)F)nc(N4CC5(CCNC5)C4)c3n2)CC1 [Example 46] | 500 to 2000 | – | < 200 | < 200 | < 200 | 500 to 2000
8 | [2H]C([2H])([2H])N1CC2(CN(c3nc(C)cc4cnc(NC5CCN(S(C)(=O)=O)CC5)nc34)CC2(F)F)C1 [Example 12, 8-(8,8-difluoro-2-(methyl-d3)-2,6-diazaspiro[3.4]octan-6-yl)-6-methyl-N-(1-(methylsulfonyl)piperidin-4-yl)pyrido [3,4-d]pyrimidin-2-amine] | – | < 200 | < 200 | < 200 | < 200 | –
9 | [2H]C([2H])([2H])N1CC2(CN(c3nc(C)cc4cnc(NC5CCN(S(=O)(=O)C6CC6)CC5)nc34)CC2(F)F)C1 [Compound 13, N-(1-(cyclopropylsulfonyl)piperidin-4-yl)-8-(8,8-difluoro-2-(methyl-d3)-2,6-diazaspiro[3.4]octan-6-yl)-6-methylpyrido[3,4-d]pyrimidin-2-amine] | – | < 200 | < 200 | < 200 | < 200 | –
10 | Cc1cc2cnc(NC3CCN(S(C)(=O)=O)CC3)nc2c(N2CC3(CNCC3C(F)F)C2)n1 (stereo not drawn) [Compound 100, 8-(8-(difluoromethyl)-2,6-diazaspiro[3.4]octan-2-yl)-6-methyl-N-(1-(methylsulfonyl)piperidin-4-yl)pyrido[3,4-d]pyrimidin-2-amine] | – | < 200 | < 200 | < 200 | < 200 | –
11 | Cc1cc2cnc(NC3CCN(S(C)(=O)=O)CC3)nc2c(N2CC3(CNCC3F)C2)n1 (stereo not drawn) [Compound 98, 8-(8-fluoro-2,6-diazaspiro[3.4]octan-2-yl)-6-methyl-N-(1-(methylsulfonyl)piperidin-4-yl)pyrido[3,4-d]pyrimidin-2-amine] | – | < 200 | 200 to 500 | 200 to 500 | < 200 | –
